# Several values for one entry are separate records, joined by “and”; a condition that tells them apart may be missing. Identical values can stand only once. Inconclusive results and toxic doses are left out.
# Tested on: P388 leukemia ip, CD2F1 mice, survival T/C
# Assay: NCI In Vivo Anticancer Drug Screen. Data for tumor model P388 Leukemia (intraperitoneal) in CD2F1 (CDF1) mice
# Details: endpoint: median survival time, higher = longer survival
# Outline: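 Mice carrying the transplanted tumor received test compound or vehicle. Survival was recorded in each group, and the value is the treated-group measurement divided by that of the vehicle-treated control group.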
# [1] = dose: 25.0 mg/kg/injection, schedule: Q01DX009 (ip), vehicle: saline with Tween-80
# [2] = dose: 60.0 mg/kg/injection, schedule: Q01DX005 (ip), vehicle: saline with Tween-80
# [3] = dose: 120.0 mg/kg/injection, schedule: Q01DX005 (ip), vehicle: saline with Tween-80
# [4] = dose: 240.0 mg/kg/injection, schedule: Q01DX005 (ip), vehicle: saline with Tween-80
# [5] = dose: 100.0 mg/kg/injection, schedule: Q01DX009 (ip), vehicle: saline
# [6] = dose: 200.0 mg/kg/injection, schedule: Q01DX009 (ip), vehicle: saline
# [7] = dose: 400.0 mg/kg/injection, schedule: Q01DX009 (ip), vehicle: saline
# [8] = dose: 50.0 mg/kg/injection, schedule: Q01DX005 (ip), vehicle: Klucel (hydroxypropylcellulose) (HPC)
# [9] = dose: 100.0 mg/kg/injection, schedule: Q01DX005 (ip), vehicle: Klucel (hydroxypropylcellulose) (HPC)
# [10] = dose: 200.0 mg/kg/injection, schedule: Q01DX005 (ip), vehicle: Klucel (hydroxypropylcellulose) (HPC)
# [11] = dose: 6.25 mg/kg/injection, schedule: Q01DX009 (ip), vehicle: saline
# [12] = dose: 12.5 mg/kg/injection, schedule: Q01DX009 (ip), vehicle: saline
# [13] = dose: 50.0 mg/kg/injection, schedule: Q01DX005 (ip), vehicle: saline with Tween-80
# [14] = dose: 100.0 mg/kg/injection, schedule: Q01DX005 (ip), vehicle: saline with Tween-80
# [15] = dose: 200.0 mg/kg/injection, schedule: Q01DX005 (ip), vehicle: saline with Tween-80
# [16] = dose: 50.0 mg/kg/injection, schedule: Q01DX009 (ip), vehicle: saline with Tween-80
# [17] = dose: 100.0 mg/kg/injection, schedule: Q01DX009 (ip), vehicle: saline with Tween-80
# [18] = dose: 25.0 mg/kg/injection, schedule: Q01DX009 (ip), vehicle: distilled water + Tween-80
# [19] = dose: 50.0 mg/kg/injection, schedule: Q01DX009 (ip), vehicle: distilled water + Tween-80
# [20] = dose: 100.0 mg/kg/injection, schedule: Q01DX009 (ip), vehicle: distilled water + Tween-80
# [21] = dose: 200.0 mg/kg/injection, schedule: Q01DX009 (ip), vehicle: distilled water + Tween-80
structure (smiles),measurement,setting,value
CCCCCCCCCCCCCCCC(=O)NCCN(CC)CC,T/C,"dose: 12.5 mg/kg/injection, schedule: Q01DX009 (ip), vehicle: saline with Tween-80",105 % of control
same,T/C,[1],100 % of control
CC(=O)N1C(=O)C2(Nc3cc4ccccc4cc3N2)c2ccccc21,T/C,[2],94 % of control
same,T/C,[3],93 % of control
same,T/C,[4],92 % of control
CN(C)P(N)(N)=O,T/C,[5],105 % of control
same,T/C,[6],95 % of control
same,T/C,[7],100 % of control
NC(=O)N/N=C1/CCC(O)CC1CC(=O)O (centres undefined),T/C,[8],103 % of control
same,T/C,[9],100 % of control
same,T/C,[10],97 % of control
COc1cccc(/C=N/C(/N=C/c2cccc(OC)c2O)c2cccc(OC)c2O)c1O,T/C,[2],97 % of control
same,T/C,[3],97 % of control
same,T/C,[4],102 % of control
CS(=O)CCC1C(=O)OC(C(C)(C)C)N1C(=O)c1ccccc1 (centres undefined),T/C,[2],101 % of control
same,T/C,[3],100 % of control
same,T/C,[4],105 % of control
C[N+](C)(C)CCC(=O)c1ccc(Cl)c(Cl)c1,T/C,"dose: 3.13 mg/kg/injection, schedule: Q01DX009 (ip), vehicle: saline",108 % of control
same,T/C,[11],112 % of control
same,T/C,[12],108 % of control
O=C1OCC2OC(=O)c3cc(O)c(O)c(O)c3-c3c(O)c(O)c(O)c4c3C(=O)OC(C2OC(=O)c2cc(O)c(O)c(O)c2-c2c1cc(O)c(O)c2O)C1OC(=O)c2c-4c(O)c(O)c(O)c2C1O (centres undefined),T/C,"dose: 1.56 mg/kg/injection, schedule: Q01DX009 (ip), vehicle: saline",101 % of control
same,T/C,"dose: 3.12 mg/kg/injection, schedule: Q01DX009 (ip), vehicle: saline",100 % of control
same,T/C,[11],99 % of control and 88 % of control and 100 % of control
same,T/C,[12],100 % of control
Oc1cc(O)c2c(c1)Oc1cc(O)cc(O)c1C2,T/C,"dose: 25.0 mg/kg/injection, schedule: Q04DX003 (ip), vehicle: saline with Tween-80",100 % of control
same,T/C,[13],106 % of control
same,T/C,"dose: 50.0 mg/kg/injection, schedule: Q04DX003 (ip), vehicle: saline with Tween-80",98 % of control
same,T/C,[14],109 % of control
same,T/C,"dose: 100.0 mg/kg/injection, schedule: Q04DX003 (ip), vehicle: saline with Tween-80",97 % of control
same,T/C,[15],115 % of control
CCC/C=c1/[nH]c(=O)/c(=C\c2ccc(OC)cc2)[nH]c1=O,T/C,"dose: 25.0 mg/kg/injection, schedule: Q01DX009 (ip), vehicle: Klucel (hydroxypropylcellulose) (HPC)",101 % of control
same,T/C,"dose: 50.0 mg/kg/injection, schedule: Q01DX009 (ip), vehicle: Klucel (hydroxypropylcellulose) (HPC)",96 % of control
same,T/C,"dose: 100.0 mg/kg/injection, schedule: Q01DX009 (ip), vehicle: Klucel (hydroxypropylcellulose) (HPC)",102 % of control
CC(=O)NCSCC(N)C(=O)O (centres undefined),T/C,[5],104 % of control
same,T/C,"dose: 100.0 mg/kg/injection, schedule: Q04DX003 (ip), vehicle: saline",95 % of control
same,T/C,[6],118 % of control
same,T/C,"dose: 200.0 mg/kg/injection, schedule: Q04DX003 (ip), vehicle: saline",113 % of control
same,T/C,[7],90 % of control
same,T/C,"dose: 400.0 mg/kg/injection, schedule: Q04DX003 (ip), vehicle: saline",90 % of control
CCC1C[N+]2=C(c3cc(OC)c(OC)cc3CC2)c2c1cc1n2CCc2cc(OC)c(OC)cc2-1 (centres undefined),T/C,"dose: 0.75 mg/kg/injection, schedule: Q01DX005 (ip), vehicle: saline with Tween-80",101 % of control
same,T/C,"dose: 1.5 mg/kg/injection, schedule: Q01DX005 (ip), vehicle: saline with Tween-80",109 % of control
same,T/C,"dose: 3.0 mg/kg/injection, schedule: Q01DX005 (ip), vehicle: saline with Tween-80",117 % of control
same,T/C,"dose: 3.12 mg/kg/injection, schedule: Q01DX005 (ip), vehicle: saline with Tween-80",111 % of control
same,T/C,"dose: 6.25 mg/kg/injection, schedule: Q01DX005 (ip), vehicle: saline with Tween-80",109 % of control
same,T/C,"dose: 12.5 mg/kg/injection, schedule: Q01DX005 (ip), vehicle: saline with Tween-80",114 % of control
O=C(Nc1ccc(Cl)c(Cl)c1)Oc1cccnc1,T/C,[16],100 % of control
same,T/C,[17],105 % of control
CS(C)(NC(N)=O)OS(=O)(=O)O,T/C,"dose: 60.0 mg/kg/injection, schedule: Q01DX005 (ip), vehicle: saline",98 % of control
same,T/C,"dose: 120.0 mg/kg/injection, schedule: Q01DX005 (ip), vehicle: saline",98 % of control
same,T/C,"dose: 240.0 mg/kg/injection, schedule: Q01DX005 (ip), vehicle: saline",101 % of control
CCOC(=O)C1=C(C)O/C(=C/c2cccc(Cl)c2)C1=O,T/C,[13],117 % of control and 119 % of control
same,T/C,[14],121 % of control and 123 % of control
same,T/C,[15],113 % of control
CCC1(C)C(=O)C(C)(CC)C1=O (centres undefined),T/C,[2],105 % of control
same,T/C,[3],107 % of control
same,T/C,[4],116 % of control
O=C1CC(c2ccc(OCN(CCCl)CCCl)cc2)CC(=O)C1CN(CCCl)CCCl (centres undefined),T/C,"dose: 2.0 mg/kg/injection, schedule: Q01DX009 (ip), vehicle: Klucel (hydroxypropylcellulose) (HPC)",117 % of control
same,T/C,"dose: 4.0 mg/kg/injection, schedule: Q01DX009 (ip), vehicle: Klucel (hydroxypropylcellulose) (HPC)",160 % of control
same,T/C,"dose: 8.0 mg/kg/injection, schedule: Q01DX009 (ip), vehicle: Klucel (hydroxypropylcellulose) (HPC)",153 % of control
same,T/C,"dose: 16.0 mg/kg/injection, schedule: Q01DX009 (ip), vehicle: Klucel (hydroxypropylcellulose) (HPC)",166 % of control and 173 % of control
same,T/C,"dose: 32.0 mg/kg/injection, schedule: Q01DX009 (ip), vehicle: Klucel (hydroxypropylcellulose) (HPC)",190 % of control
O=[N+]([O-])c1ccc(N2CCCC2)c([N+](=O)[O-])c1,T/C,[1],100 % of control
same,T/C,[16],104 % of control
same,T/C,[17],100 % of control
same,T/C,"dose: 200.0 mg/kg/injection, schedule: Q01DX009 (ip), vehicle: saline with Tween-80",100 % of control
O=C(NC1CCOC1=O)OCc1ccccc1 (centres undefined),T/C,[18],110 % of control
same,T/C,[19],95 % of control
same,T/C,[20],117 % of control
same,T/C,[21],111 % of control
CCN(CC)c1cccc(OC(=O)Nc2cccc(C(F)(F)F)c2)c1,T/C,[2],106 % of control
same,T/C,[3],94 % of control
same,T/C,[4],97 % of control
COC(=O)N1CCC(N)(C#N)CC1,T/C,"dose: 12.5 mg/kg/injection, schedule: Q04DX003 (ip), vehicle: Klucel (hydroxypropylcellulose) (HPC)",100 % of control
same,T/C,"dose: 25.0 mg/kg/injection, schedule: Q04DX003 (ip), vehicle: Klucel (hydroxypropylcellulose) (HPC)",93 % of control
NC(=O)CCNC(=O)OCc1ccccc1,T/C,"dose: 12.5 mg/kg/injection, schedule: Q01DX009 (ip), vehicle: distilled water + Tween-80",105 % of control
same,T/C,[18],103 % of control
same,T/C,[19],103 % of control
same,T/C,[20],104 % of control
same,T/C,[21],100 % of control
CN(C)C(=O)Cn1cc([N+](=O)[O-])sc1=NC(=O)c1ccncc1,T/C,"dose: 100.0 mg/kg/injection, schedule: Q01DX001 (ip), vehicle: saline",93 % of control
same,T/C,"dose: 200.0 mg/kg/injection, schedule: Q01DX001 (ip), vehicle: saline",109 % of control
same,T/C,"dose: 400.0 mg/kg/injection, schedule: Q01DX001 (ip), vehicle: saline",105 % of control
CC12CCC(O1)C1C(=O)NC(=O)C12 (centres undefined),T/C,"dose: 50.0 mg/kg/injection, schedule: Q01DX005 (ip), vehicle: saline",102 % of control
same,T/C,"dose: 100.0 mg/kg/injection, schedule: Q01DX005 (ip), vehicle: saline",108 % of control
same,T/C,"dose: 200.0 mg/kg/injection, schedule: Q01DX005 (ip), vehicle: saline",100 % of control
CC(=O)OC1NC(=O)C(OC(C)=O)NC1=O (centres undefined),T/C,"dose: 25.0 mg/kg/injection, schedule: Q01DX005 (ip), vehicle: Klucel (hydroxypropylcellulose) (HPC)",100 % of control
same,T/C,[8],98 % of control and 102 % of control (2×)
same,T/C,[9],101 % of control (2×) and 120 % of control
same,T/C,[10],102 % of control and 107 % of control and 110 % of control
CCCCOC(=O)/C=C(\Br)C(=O)OCCCC,T/C,[16],114 % of control
same,T/C,[17],124 % of control
c1cc[c]([Ge]([O][Ge]([c]2ccccc2)[c]2ccccc2)[c]2ccccc2)cc1.c1cc[c]([Ge]([O][Ge]([c]2ccccc2)[c]2ccccc2)[c]2ccccc2)cc1,T/C,[8],89 % of control
same,T/C,[9],91 % of control
same,T/C,[10],89 % of control
